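Method: 48-hour compound exposure of cells in 96-well plates, five concentrations, linear interpolation of endpoints. TGI: total growth inhibition.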 Bounds are passed on as bounds.

Test systems include OVCAR-3 ovarian; UO-31 renal; OVCAR-8 ovarian; NCI-H460 lung; ACHN renal; MALME-3M melanoma; 786-0 renal; IGROV1 ovarian; SW-620 colon.
Common to all, as to test: NCI tumour cell line growth inhibition, 48 h

For the compound `CC1=NNC(=O)C2CCC(=O)N12` (stereo not drawn), the TGI in the test on OVCAR-3 ovarian, in the test with UO-31 renal, in the test with OVCAR-8 ovarian, in the test on NCI-H460 lung, in the test on ACHN renal and with MALME-3M melanoma was over 100 µM in each case. For the same compound, the TGI in the test with 786-0 renal, in the test with IGROV1 ovarian and in the test with SW-620 colon was over 100 µM each time.

As to `Cc1ccc(Cc2c(=O)[nH]nc3ccccc23)cc1`, the TGI in the test with OVCAR-3 ovarian, in the test on UO-31 renal, in the test on OVCAR-8 ovarian, with NCI-H460 lung, in the test with ACHN renal and with MALME-3M melanoma was over 100 µM throughout. Also, the TGI with 786-0 renal, in the test with IGROV1 ovarian and in the test with SW-620 colon was over 100 µM each time.

With `CC1(C)COC(c2cccnc2/C=N/O)=N1`, the TGI in the test on OVCAR-3 ovarian, in the test with UO-31 renal, in the test on OVCAR-8 ovarian, in the test on NCI-H460 lung, in the test on ACHN renal and with MALME-3M melanoma was over 100 µM each time. The TGI in the test on 786-0 renal, in the test with IGROV1 ovarian and in the test with SW-620 colon was over 100 µM each time.

In the case of `O=[N+]([O-])c1ccc(C2=Nn3cnnc3SC2)o1`, the TGI in the test with OVCAR-3 ovarian was found to be 31.7 µM; with UO-31 renal it was 36.5 µM; with OVCAR-8 ovarian, 53.9 µM; in the test on NCI-H460 lung it was 26.3 µM; in the test with ACHN renal, 29.4 µM; in the test with 786-0 renal it was 32.1 µM. This compound also had a TGI in the test on SW-620 colon of 25.3 µM.

For `N#CC(N)(C(=O)CCC(=O)Nc1cccc(Cl)c1)c1ccc(Cl)cc1` (stereo not drawn), the TGI in the test with OVCAR-3 ovarian, in the test on UO-31 renal, in the test on OVCAR-8 ovarian, in the test on NCI-H460 lung, with ACHN renal and in the test with MALME-3M melanoma was over 100 µM in each case. The TGI in the test on 786-0 renal, in the test on IGROV1 ovarian and with SW-620 colon was over 100 µM in each case.

Turning to `N#Cc1nc(Nc2cccc3ccccc23)sc1N`, the TGI in the test on OVCAR-3 ovarian was over 100 µM; in the test on UO-31 renal it was 49 µM; in the test on OVCAR-8 ovarian it was over 100 µM; with NCI-H460 lung it was over 100 µM; in the test on ACHN renal it was 75.3 µM; in the test with MALME-3M melanoma, over 100 µM. Also, the TGI in the test on 786-0 renal, with IGROV1 ovarian and in the test on SW-620 colon was over 100 µM in each case.

In the case of `COC(=O)C1=C(O)c2cc(OC)c(OC)cc2C(c2ccc(OC)c(OC)c2)C1` (stereo not drawn), the TGI in the test on OVCAR-3 ovarian, in the test on UO-31 renal, with OVCAR-8 ovarian, with NCI-H460 lung, in the test on ACHN renal and in the test on MALME-3M melanoma was over 100 µM in each case. Also, the TGI in the test on 786-0 renal, in the test on IGROV1 ovarian and in the test on SW-620 colon was over 100 µM throughout.

Regarding `CCCCC(C(=O)C(=O)NC1C2CC3CC(C2)CC1C3)C(=O)C(C)C` (stereo not drawn), the TGI with OVCAR-3 ovarian, with UO-31 renal, in the test on OVCAR-8 ovarian, in the test with NCI-H460 lung, with ACHN renal and in the test on MALME-3M melanoma was over 100 µM each time. Further, the TGI in the test on 786-0 renal, in the test with IGROV1 ovarian and with SW-620 colon was over 100 µM each time.

`CC(C)c1ccccc1NC(=O)CCc1n[nH]c(=S)o1`: the TGI in the test on OVCAR-3 ovarian was over 100 µM; with UO-31 renal it was over 100 µM; with OVCAR-8 ovarian it was over 100 µM; in the test with NCI-H460 lung, over 80.1 µM; in the test with ACHN renal, over 100 µM; in the test with MALME-3M melanoma, over 100 µM. For the same compound, the TGI in the test with 786-0 renal was over 100 µM; in the test on IGROV1 ovarian, over 100 µM; with SW-620 colon it was over 56 µM.

Take `S=C(Nc1ccccc1)N(/N=C/C=C/c1ccccc1)c1nnc(-c2ccccc2)c(-c2ccccc2)n1`: the TGI in the test on OVCAR-3 ovarian, with UO-31 renal, in the test with OVCAR-8 ovarian, in the test with NCI-H460 lung, in the test on ACHN renal and in the test with MALME-3M melanoma was over 100 µM in each case. Besides, the TGI in the test on 786-0 renal, with IGROV1 ovarian and in the test with SW-620 colon was over 100 µM each time.

For `Cn1c2c(c3ccccc31)C1CCCCCCC1C1C(=O)OC(=O)C21` (stereo not drawn), the TGI in the test with OVCAR-3 ovarian is 47.8 µM; in the test with UO-31 renal, over 100 µM; in the test on OVCAR-8 ovarian it was over 100 µM; in the test on NCI-H460 lung, over 100 µM; in the test on ACHN renal, over 100 µM; with MALME-3M melanoma it was 69 µM. Also, the TGI in the test on 786-0 renal is over 100 µM; in the test with IGROV1 ovarian it was 73.8 µM; with SW-620 colon it was over 100 µM.

On to `COc1cc(C(Cc2ccccc2)NC(C)=O)oc(=O)c1` (stereo not drawn), for which the TGI in the test on OVCAR-3 ovarian, in the test with UO-31 renal, with OVCAR-8 ovarian, in the test with NCI-H460 lung, in the test with ACHN renal and in the test on MALME-3M melanoma was over 100 µM throughout. Further, the TGI in the test with 786-0 renal, with IGROV1 ovarian and in the test on SW-620 colon was over 100 µM throughout.

Take `CCOc1ccccc1C=C1c2ccccc2C(=O)c2ccccc21`: the TGI with OVCAR-3 ovarian was 10.5 µM; with UO-31 renal, 13.6 µM; in the test on OVCAR-8 ovarian it was 43 µM; in the test on NCI-H460 lung, 31.9 µM; in the test on ACHN renal, over 100 µM; in the test on MALME-3M melanoma, over 100 µM. The TGI in the test on 786-0 renal was 18 µM; with IGROV1 ovarian, over 100 µM; in the test on SW-620 colon, 41.4 µM.

`CC1=C(C(=O)Nc2ccccc2)C(c2ccccc2)C(C(=O)Nc2ccccc2)=C(C)N1`: the TGI with OVCAR-3 ovarian, in the test with UO-31 renal, in the test on OVCAR-8 ovarian, in the test on NCI-H460 lung, with ACHN renal and with MALME-3M melanoma was over 100 µM in each case. For the same compound, the TGI in the test with 786-0 renal, in the test on IGROV1 ovarian and in the test with SW-620 colon was over 100 µM throughout.

Consider `CN(C)c1ccc(C(C=C2c3ccccc3Sc3ccccc32)=C(C#N)C#N)cc1`, for which the TGI in the test with OVCAR-3 ovarian, with UO-31 renal, with OVCAR-8 ovarian, in the test on NCI-H460 lung, in the test with ACHN renal and in the test with MALME-3M melanoma was over 100 µM each time. The TGI in the test with 786-0 renal, in the test with IGROV1 ovarian and in the test on SW-620 colon was over 100 µM in each case.

Source of the values: PubChem BioAssay (NCI).
